Measurements taken from ChEMBL document CHEMBL1127152, “Design and synthesis of achiral 5-lipoxygenase inhibitors employing the cyclobutyl group” (Bioorg Med Chem Lett, 1993).

target: T1, Polyunsaturated fatty acid 5-lipoxygenase (Homo sapiens, UniProt P09917); experiment: The compound was tested in vitro for inhibition against 5-lipoxygenase in intact human neutrophils
T1 sequence (P09917 whole entry): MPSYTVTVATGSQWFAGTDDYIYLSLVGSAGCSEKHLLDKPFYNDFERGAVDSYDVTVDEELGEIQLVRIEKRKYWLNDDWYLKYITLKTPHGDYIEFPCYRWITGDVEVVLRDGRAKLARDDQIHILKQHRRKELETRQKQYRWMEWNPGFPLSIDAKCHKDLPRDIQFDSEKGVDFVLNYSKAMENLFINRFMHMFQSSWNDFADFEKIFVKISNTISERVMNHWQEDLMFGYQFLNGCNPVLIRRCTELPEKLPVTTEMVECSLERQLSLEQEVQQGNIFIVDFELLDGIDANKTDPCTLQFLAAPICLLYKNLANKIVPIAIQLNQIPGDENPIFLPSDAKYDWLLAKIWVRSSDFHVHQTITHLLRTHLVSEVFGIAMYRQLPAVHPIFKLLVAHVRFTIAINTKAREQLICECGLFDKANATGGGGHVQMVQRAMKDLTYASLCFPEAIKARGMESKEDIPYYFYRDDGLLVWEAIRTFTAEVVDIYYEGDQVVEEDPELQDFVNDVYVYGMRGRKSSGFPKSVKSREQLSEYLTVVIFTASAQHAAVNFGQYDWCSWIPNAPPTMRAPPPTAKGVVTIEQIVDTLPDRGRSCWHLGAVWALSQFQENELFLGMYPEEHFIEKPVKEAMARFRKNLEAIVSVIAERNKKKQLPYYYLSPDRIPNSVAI

IC50 | SMILES
380 nM | NC(=O)N(O)[C@H]1C[C@H](c2cc3ccccc3s2)C1
80 nM | CC(/C=C/c1cccc(Oc2ccc(F)cc2)c1)N(O)C(N)=O (stereo not drawn)
170 nM | NC(=O)N(O)[C@H]1C[C@@H](c2cccc(Oc3ccc(F)cc3)c2)C1
